Experimental findings from ChEMBL document CHEMBL2021814, “Fragment-based and structure-guided discovery and optimization of Rho kinase inhibitors” (J Med Chem, 2012) are described below.

In test [1] the target is Rho-associated protein kinase 2 (Homo sapiens, UniProt O75116). Briefly: Inhibition of ROCK2 after 1 hr by FRET-based enzyme-coupled assay.
For test [2], the target named is Rho-associated protein kinase 1 (Homo sapiens, UniProt Q13464). In words: Inhibition of human His-puritin-tagged ROCK1 expressed in Sf9 cells after 1 hr by FRET-based enzyme-coupled assay.
Sequence of Rho-associated protein kinase 1 (Q13464 whole entry): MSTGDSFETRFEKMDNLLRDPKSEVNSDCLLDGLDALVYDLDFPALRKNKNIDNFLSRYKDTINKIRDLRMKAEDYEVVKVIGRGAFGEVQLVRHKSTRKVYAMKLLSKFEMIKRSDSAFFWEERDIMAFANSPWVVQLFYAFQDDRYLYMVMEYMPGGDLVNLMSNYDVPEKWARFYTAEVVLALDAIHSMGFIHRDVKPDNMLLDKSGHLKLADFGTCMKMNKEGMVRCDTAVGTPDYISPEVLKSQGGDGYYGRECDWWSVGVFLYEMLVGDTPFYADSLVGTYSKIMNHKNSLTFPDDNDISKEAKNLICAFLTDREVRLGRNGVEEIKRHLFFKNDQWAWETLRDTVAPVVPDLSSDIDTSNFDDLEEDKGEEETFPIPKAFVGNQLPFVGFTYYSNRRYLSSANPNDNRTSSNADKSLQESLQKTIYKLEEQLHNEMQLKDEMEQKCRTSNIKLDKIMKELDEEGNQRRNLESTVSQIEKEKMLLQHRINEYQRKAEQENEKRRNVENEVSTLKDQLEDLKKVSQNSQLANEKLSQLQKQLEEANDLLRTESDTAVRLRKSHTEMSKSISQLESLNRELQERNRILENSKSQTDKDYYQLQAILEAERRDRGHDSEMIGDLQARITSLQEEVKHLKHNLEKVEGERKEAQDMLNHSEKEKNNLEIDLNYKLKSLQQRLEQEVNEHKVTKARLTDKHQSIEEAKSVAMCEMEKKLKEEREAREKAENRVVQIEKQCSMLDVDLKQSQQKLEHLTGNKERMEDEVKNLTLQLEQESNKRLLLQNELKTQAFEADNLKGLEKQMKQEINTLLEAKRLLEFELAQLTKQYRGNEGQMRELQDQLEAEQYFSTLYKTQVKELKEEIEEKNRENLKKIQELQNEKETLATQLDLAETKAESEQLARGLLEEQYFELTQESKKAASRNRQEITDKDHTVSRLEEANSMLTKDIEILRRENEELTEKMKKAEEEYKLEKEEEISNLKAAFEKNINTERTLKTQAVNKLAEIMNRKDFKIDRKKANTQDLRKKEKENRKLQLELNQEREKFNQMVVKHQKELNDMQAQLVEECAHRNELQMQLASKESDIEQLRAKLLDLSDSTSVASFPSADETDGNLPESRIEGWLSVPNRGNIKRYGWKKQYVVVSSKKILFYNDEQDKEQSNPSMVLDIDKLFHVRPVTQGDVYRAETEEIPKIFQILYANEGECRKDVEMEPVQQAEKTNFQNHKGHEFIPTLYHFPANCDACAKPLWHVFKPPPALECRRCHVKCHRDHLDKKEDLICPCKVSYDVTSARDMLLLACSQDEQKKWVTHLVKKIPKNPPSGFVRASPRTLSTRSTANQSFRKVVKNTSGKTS

Sequence of Rho-associated protein kinase 2 (O75116 whole entry): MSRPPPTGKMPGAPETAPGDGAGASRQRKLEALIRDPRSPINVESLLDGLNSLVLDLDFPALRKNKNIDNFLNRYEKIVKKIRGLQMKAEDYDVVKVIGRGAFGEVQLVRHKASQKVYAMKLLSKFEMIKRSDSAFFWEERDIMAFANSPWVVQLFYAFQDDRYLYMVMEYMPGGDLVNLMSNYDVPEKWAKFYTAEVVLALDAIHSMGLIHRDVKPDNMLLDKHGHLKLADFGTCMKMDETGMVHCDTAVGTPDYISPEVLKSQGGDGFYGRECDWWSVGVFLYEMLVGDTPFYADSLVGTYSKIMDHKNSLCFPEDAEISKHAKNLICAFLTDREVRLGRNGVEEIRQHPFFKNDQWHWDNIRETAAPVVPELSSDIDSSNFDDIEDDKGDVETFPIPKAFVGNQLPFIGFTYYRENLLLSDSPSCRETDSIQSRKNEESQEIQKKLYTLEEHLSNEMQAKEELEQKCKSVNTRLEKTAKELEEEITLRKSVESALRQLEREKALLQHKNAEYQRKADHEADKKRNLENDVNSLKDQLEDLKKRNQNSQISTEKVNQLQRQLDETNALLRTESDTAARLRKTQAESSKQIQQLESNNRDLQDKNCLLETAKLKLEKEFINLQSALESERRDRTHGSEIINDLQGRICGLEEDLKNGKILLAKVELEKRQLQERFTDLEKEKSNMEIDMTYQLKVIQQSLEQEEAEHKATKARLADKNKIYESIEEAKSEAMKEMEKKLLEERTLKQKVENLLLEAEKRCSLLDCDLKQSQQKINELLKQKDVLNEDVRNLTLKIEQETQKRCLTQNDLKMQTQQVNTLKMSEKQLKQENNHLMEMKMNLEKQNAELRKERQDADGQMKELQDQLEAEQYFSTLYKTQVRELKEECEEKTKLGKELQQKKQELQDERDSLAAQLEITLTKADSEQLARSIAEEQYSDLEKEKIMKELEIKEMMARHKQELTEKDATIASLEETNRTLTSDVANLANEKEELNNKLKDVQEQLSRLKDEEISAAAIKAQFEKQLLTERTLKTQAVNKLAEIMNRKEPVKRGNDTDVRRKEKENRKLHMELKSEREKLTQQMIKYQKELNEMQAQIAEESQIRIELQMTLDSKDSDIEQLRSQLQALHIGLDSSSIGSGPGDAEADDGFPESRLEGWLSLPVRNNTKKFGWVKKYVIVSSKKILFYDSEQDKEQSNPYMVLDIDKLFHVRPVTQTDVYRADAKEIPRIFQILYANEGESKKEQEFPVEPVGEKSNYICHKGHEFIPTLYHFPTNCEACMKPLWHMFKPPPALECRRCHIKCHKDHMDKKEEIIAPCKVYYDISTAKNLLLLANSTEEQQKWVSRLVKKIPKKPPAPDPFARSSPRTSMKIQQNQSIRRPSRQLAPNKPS

Usually IC50 stands for the concentration that inhibits the measured activity by half. Read a low IC50 as greater potency in that assay. As to `O=C(Nc1ccncc1)c1cnccc1-c1ccc(F)cc1`, the IC50 in test [1] and in test [2] was > 400 µM throughout.
Regarding `O=C(Nc1ccncc1)c1cncc(-c2ccc(F)cc2)c1`, the IC50 in test [1] and in test [2] was > 400 µM in each case.
